From ChEMBL document CHEMBL1149878, “Tetramic and tetronic acids: an update on new derivatives and biological aspects” (Bioorg Med Chem, 2008)
Values after ≈ are worked out from the molar mass of the structure shown. Where a SMILES comes first, the peptide text is derived from it. [ ]: non-standard residue; d: D form. The star is where a group is joined. X1 = COC1=CC(=O)N(C(=O)[C@@H](O*)C(C)C)[C@H]1Cc1ccccc1; NMe2Val = CC(C)[C@@H](C(=O)*)N(C)C; NMeV = CN[C@H](C(=O)O)C(C)C

Assays:
[1] = Inhibition of Escherichia coli H560 DNA gyrase
Glutamate NMDA receptor = assay: Displacement of [3H]L689560 from glycine site of rat NMDA receptor; type: protein-complex assay
[2] = molecular target: Glutamate NMDA receptor (Rattus norvegicus) (UniProt P35439+Q00959+Q00960+Q00961+Q62645+Q8VHN2+Q9R1M7); assay: Antagonist activity at NMDA receptor in rat cortex assessed as inhibition of NMDA-induced depolarization; type: functional, tissue-based
[3] = Inhibition of HCV NS5B polymerase; parameters: species or system Hepacivirus hominis
Escherichia coli = assay: Antimicrobial activity against Escherichia coli; type: functional
Staphylococcus aureus [4] = assay: Antimicrobial activity against Staphylococcus aureus; type: functional
[5] = Inhibition of Escherichia coli MurB
Beta-secretase 1 = Beta-secretase 1 (Homo sapiens, UniProt P56817); assay: Inhibition of BACE1 by FRET assay
Staphylococcus aureus [6] = assay: Growth inhibition of multidrug resistant Staphylococcus aureus; type: functional, organism-based
HeLa = assay: Growth inhibition of human HeLa cells; type: functional, cell-based
Enterococcus faecalis [7] = assay: Growth inhibition of multidrug resistant Enterococcus faecalis; type: functional, organism-based
[8] = molecular target: M-phase inducer phosphatase 2 (Homo sapiens, UniProt P30305); assay: Inhibition of cdc25B
[9] = Selectivity for cdc25B over VHR
XF498 = assay: Cytotoxicity against human XF498 cells; type: functional, cell-based
A549 [10] = assay: Cytotoxicity against human A549 cells; type: functional, cell-based
HCT-15 = assay: Cytotoxicity against human HCT15 cells; type: functional, cell-based
SK-OV-3 = assay: Cytotoxicity against human SK-OV-3 cells; type: functional, cell-based
SK-MEL-2 = assay: Cytotoxicity against human SK-Mel-2 cells; type: functional, cell-based
Phocaeicola vulgatus = assay: Antimicrobial activity against Bacteroides vulgatus; type: functional
Bifidobacterium longum = assay: Antimicrobial activity against Bifidobacterium longum; type: functional
Clostridioides difficile = assay: Antimicrobial activity against Clostridium difficile; type: functional
Eubacterium limosum = assay: Antimicrobial activity against Eubacterium limosum; type: functional
[11] = system: Streptococcus constellatus; assay: Antimicrobial activity against Streptococcus constellatus; type: functional
[12] = system: Fusobacterium necrophorum; assay: Antimicrobial activity against Fusobacterium necrophorum; type: functional
Fusobacterium nucleatum = assay: Antimicrobial activity against Fusobacterium nucleatum; type: functional
Bacteroides fragilis = assay: Antimicrobial activity against Bacteroides fragilis; type: functional
Bacteroides sp. = assay: Antimicrobial activity against Bacteroides melaninogenicus; type: functional
Enterococcus [13] = assay: Growth inhibition of multidrug resistant Enterococcus; type: functional
[14] = Toxicity in rat; type: organism-based; settings: in vivo, read-out: LC50 (the source's name)
B16 = assay: Cytotoxicity against mouse B16 cells; type: functional, cell-based
Plasmodium falciparum = assay: Antiplasmodial activity against Plasmodium falciparum after 72 hrs; type: functional, organism-based
[15] = molecular target: Human immunodeficiency virus type 1 integrase (Human immunodeficiency virus 1, UniProt Q7ZJM1); assay: Inhibition of HIV1 integrase strand transfer activity
[16] = Growth inhibition of human KB3-1 cells; type: functional, cell-based; settings: KB 3-1
L929 = assay: Growth inhibition of mouse L929 cells; type: cell-based
A498 = assay: Growth inhibition of human A498 cells; type: functional, cell-based
HL-60 = assay: Growth inhibition of human HL60 cells by MTT assay after 24 hrs; type: functional, cell-based; settings: HL-60, 24 h
Bel-7402 = assay: Growth inhibition of human Bel7402 cells by MTT assay after 24 hrs; type: functional, cell-based; settings: Bel-7402, 24 h
A549 [17] = assay: Growth inhibition of human A549 cells by MTT assay after 24 hrs; type: functional, cell-based; settings: A549, 24 h
P388 = assay: Growth inhibition of mouse P388 cells by MTT assay after 24 hrs; type: functional, cell-based; settings: P388, 24 h
Legionella = assay: Antimicrobial activity against Legionella; type: functional
Streptococcus equinus = assay: Antimicrobial activity against Streptococcus bovis A5169; type: functional
Streptococcus pyogenes = assay: Antimicrobial activity against Streptococcus pyogenes 930; type: functional
Enterococcus [18] = assay: Antimicrobial activity against Enterococcus; type: functional
Staphylococcus aureus [19] = assay: Antimicrobial activity against methicillin-resistant Staphylococcus aureus F597; type: functional
Enterococcus faecalis [20] = assay: Antimicrobial activity against Enterococcus faecalis; type: functional

Chain of Beta-secretase 1 (P56817 whole entry): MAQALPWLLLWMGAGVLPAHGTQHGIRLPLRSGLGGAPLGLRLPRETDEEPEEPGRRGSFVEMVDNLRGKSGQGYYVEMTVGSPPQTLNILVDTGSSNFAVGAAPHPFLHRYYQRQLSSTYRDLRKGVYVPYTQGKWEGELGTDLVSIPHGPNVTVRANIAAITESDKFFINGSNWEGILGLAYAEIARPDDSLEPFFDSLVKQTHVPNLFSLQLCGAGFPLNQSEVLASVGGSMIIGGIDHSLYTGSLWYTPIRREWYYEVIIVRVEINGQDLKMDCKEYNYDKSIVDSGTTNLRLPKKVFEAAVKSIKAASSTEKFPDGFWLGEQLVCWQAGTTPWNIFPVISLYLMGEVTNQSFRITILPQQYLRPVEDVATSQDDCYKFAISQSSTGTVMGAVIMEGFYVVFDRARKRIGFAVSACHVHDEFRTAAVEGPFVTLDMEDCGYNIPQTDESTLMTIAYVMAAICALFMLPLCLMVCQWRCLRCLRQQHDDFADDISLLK
Chain of M-phase inducer phosphatase 2 (P30305 whole entry): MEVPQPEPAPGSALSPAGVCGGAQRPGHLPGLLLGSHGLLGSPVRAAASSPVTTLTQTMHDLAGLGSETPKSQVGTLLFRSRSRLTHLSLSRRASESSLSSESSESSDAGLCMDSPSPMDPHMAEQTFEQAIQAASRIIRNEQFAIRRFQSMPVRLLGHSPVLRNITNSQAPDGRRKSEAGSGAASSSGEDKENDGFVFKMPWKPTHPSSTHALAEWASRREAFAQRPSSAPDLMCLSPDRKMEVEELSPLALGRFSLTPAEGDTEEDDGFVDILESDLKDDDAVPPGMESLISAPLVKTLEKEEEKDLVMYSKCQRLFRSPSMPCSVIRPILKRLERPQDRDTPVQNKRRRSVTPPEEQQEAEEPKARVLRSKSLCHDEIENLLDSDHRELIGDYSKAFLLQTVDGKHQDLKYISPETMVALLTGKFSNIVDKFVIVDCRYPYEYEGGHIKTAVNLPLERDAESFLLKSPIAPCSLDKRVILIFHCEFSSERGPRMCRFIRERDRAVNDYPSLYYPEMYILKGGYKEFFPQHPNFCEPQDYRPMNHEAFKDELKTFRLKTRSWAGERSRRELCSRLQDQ
Chain of Human immunodeficiency virus type 1 integrase (Q7ZJM1 whole entry): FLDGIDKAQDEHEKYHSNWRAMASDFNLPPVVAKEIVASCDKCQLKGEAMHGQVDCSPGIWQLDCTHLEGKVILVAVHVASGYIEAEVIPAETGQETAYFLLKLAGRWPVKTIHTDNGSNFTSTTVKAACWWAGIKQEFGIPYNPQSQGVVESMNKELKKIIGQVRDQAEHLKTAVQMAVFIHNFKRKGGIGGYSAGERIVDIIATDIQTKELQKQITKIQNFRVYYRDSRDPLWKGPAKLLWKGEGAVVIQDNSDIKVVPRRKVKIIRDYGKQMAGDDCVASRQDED

CC(/C=C/C(O)=C1\C(=O)CNC1=O)=C\c1ccc2ccccc2c1
IC50 [1]: 3.5 µg/mL (≈ 11 µM)

CC(/C=C/C(=O)C1=C(O)CN(C)C1=O)=C\c1ccc2ccccc2c1
IC50 [1]: 10.3 µg/mL (≈ 30.9 µM)

CC/C=C1\NC(=O)C(c2cccc(Oc3ccccc3)c2)=C1O
IC50 (Glutamate NMDA receptor): 0.7 µM
Kb [2]: 6.15 µM

CC(C)(C)CN1C(=O)C(C2=NS(=O)(=O)c3ccccc3N2)=C(O)[C@@H]1C(C)(C)C
IC50 [3]: 0.0017 µM

O=C1O/C(=C\c2cccc3ccccc23)C(O)=C1c1cc(Cl)cc(Cl)c1
MIC (Escherichia coli): 1 µg/mL (≈ 2.61 µM)
MIC (Staphylococcus aureus [4]): 1 µg/mL (≈ 2.61 µM)
IC50 [5]: 21 µM
Kd [5]: 0.04 µM

CCC(C)C1NC(=O)C(SCc2cccc(C(F)(F)F)c2)=C1O (stereo unspecified)
IC50 (Beta-secretase 1): 60 µM

C[C@@H]1CC[C@@H]2[C@H](C=C[C@@H](C)[C@@]2(C)/C(O)=C2/C(=O)[C@H]([C@H](C)O)N(C)C2=O)C1
IC50 (Staphylococcus aureus [6]): 10 µg/mL (≈ 27.7 µM)
IC90 (HeLa): 7.1 µg/mL (≈ 19.6 µM)
IC50 (Enterococcus faecalis [7]): 20 µg/mL (≈ 55.3 µM)

CCCCCCCCCCCCCCCC(=O)C1=C(O)[C@@H](COC(=O)N=C=NC(=O)OCC)OC1=O
IC50 [8]: 0.4 µM
Selectivity ratio [9]: 30

C=C1C=C(CCC/C(C)=C/C=C/[C@H](C)CC/C=C(/C)CC2OC(=O)C(C)=C2O)C(=O)N1CCC(C)C (stereo partly drawn) [(R)-SARCOTRINE A]
IC50 (XF498): 3.4 µg/mL (≈ 6.86 µM)
IC50 (A549 [10]): 3.4 µg/mL (≈ 6.86 µM)
IC50 (HCT-15): 3.4 µg/mL (≈ 6.86 µM)
IC50 (SK-OV-3): 3.4 µg/mL (≈ 6.86 µM)
IC50 (SK-MEL-2): 3.4 µg/mL (≈ 6.86 µM)

C=C1C=C(CCC/C(C)=C/C=C/[C@@H](C)CC/C=C(/C)CC2OC(=O)C(C)=C2O)C(=O)N1CCC(C)C (stereo partly drawn) [(S)-SARCOTRINE A]
IC50 (XF498): 3.4 µg/mL (≈ 6.86 µM)
IC50 (A549 [10]): 3.4 µg/mL (≈ 6.86 µM)
IC50 (HCT-15): 3.4 µg/mL (≈ 6.86 µM)
IC50 (SK-OV-3): 3.4 µg/mL (≈ 6.86 µM)
IC50 (SK-MEL-2): 3.4 µg/mL (≈ 6.86 µM)

C=C1OC(=O)/C(=C(\O)CCCCCCCCC)C1=O [AGGLOMERIN A]
MIC (Phocaeicola vulgatus): 3.13 µg/mL (≈ 11.8 µM)
MIC (Bifidobacterium longum): 6.25 µg/mL (≈ 23.5 µM)
MIC (Clostridioides difficile): 3.13 µg/mL (≈ 11.8 µM)
MIC (Eubacterium limosum): 6.25 µg/mL (≈ 23.5 µM)
MIC [11]: 3.13 µg/mL (≈ 11.8 µM)
MIC [12]: 6.25 µg/mL (≈ 23.5 µM)
MIC (Fusobacterium nucleatum): 6.25 µg/mL (≈ 23.5 µM)
MIC (Bacteroides fragilis): 3.13 µg/mL (≈ 11.8 µM)
MIC (Bacteroides sp.): 6.25 µg/mL (≈ 23.5 µM)

C/C=C/C=C/[C@@H]1C(C)=C[C@@H]2C[C@H](C)CC[C@H]2[C@]1(C)/C(O)=C1\C(=O)N[C@@H]([C@H](C)O)C1=O [CONIOSETIN]
MIC (Staphylococcus aureus [6]): 0.3 µg/mL (≈ 0.725 µM)
MIC (Enterococcus [13]): 2.5 µg/mL (≈ 6.05 µM)

CC(=O)C1=C(O)[C@@H]2[C@H]3c4c[nH]c5cccc(c45)C[C@H]3C(C)(C)N2C1=O [CYCLOPIAZONIC ACID]
LD50 [14]: 30 mg/kg

C[C@H]1C=CC2C1C[C@H]1/C=C/CC/C(O)=C3/C(=O)N[C@H](C3=O)[C@@H](O)CCNC(=O)/C=C/C=C\C[C@H]21 (stereo partly specified) [CYLINDRAMIDE]
IC50 (B16): 0.8 µg/mL (≈ 1.71 µM)

COC1=CC(=O)N(C(=O)[C@@H](OC(=O)[C@@H]2CCCN2C(=O)[C@@H]2CCCN2C(=O)[C@H](C(C)C)N(C)C(=O)[C@@H](NC(=O)[C@H](C(C)C)N(C)C)C(C)C)C(C)C)[C@H]1Cc1ccccc1 [DOLASTATIN 15] (NMe2Val-V[NMeV]PP-X1)
IC50 (Plasmodium falciparum): 0.2 µM

CC1=C[C@@H]2CC[C@@H](O)[C@H](C)[C@@H]2[C@@H](C(=O)C2=C(O)C(O)NC2=O)[C@@H]1C[C@H]1O[C@@]2(CC[C@H](C)[C@@H](c3cc(O)cc(O)c3)O2)[C@@H](C)C[C@@H]1C (stereo partly specified) [INTEGRAMYCIN]
IC50 [15]: 4 µM

CCCCCCCCC(C)CC/C(O)=C1\C(=O)[C@H](C)N(C)C1=O (stereo partly specified) [MELOPHLIN B]
IC50 (HeLa): < 10 µM
IC50 [16]: < 10 µM
IC50 (L929): < 10 µM
IC50 (A498): < 10 µM

CCCCCCCC(C)CCC/C(O)=C1\C(=O)C(C)N(C)C1=O (stereo unspecified) [MELOPHLIN C]
IC50 (HeLa): < 10 µM
IC50 [16]: < 10 µM
IC50 (L929): < 10 µM
IC50 (A498): < 10 µM

CC(C)CCCCCCCCCCC/C(O)=C1\C(=O)C(C)N(C)C1=O (stereo unspecified) [MELOPHLIN Q]
IC50 (A498): 3.4 µM

CCC(C)CCCCCCCCCC/C(O)=C1\C(=O)C(C)N(C)C1=O (stereo unspecified) [MELOPHLIN R]
IC50 (HeLa): < 10 µM
IC50 [16]: < 10 µM
IC50 (L929): < 10 µM
IC50 (A498): < 10 µM

CCn1cc(C(=O)O)c(=O)c2cc(F)c(N3CCNCC3)cc21 [NORFLOXACIN]
IC50 [1]: 1 µg/mL (≈ 3.13 µM)

CCCCCCC(C)/C(O)=C1\C(=O)[C@H]([C@H](C)O)N(C)C1=O (stereo partly specified) [PENICILLENOL A1]
IC50 (HL-60): 0.76 µM

CCCCCCC(C)/C(O)=C1\C(=O)[C@@H]([C@@H](C)O)N(C)C1=O (stereo partly specified) [PENICILLENOL A2]
IC50 (Bel-7402): > 100 µM
IC50 (A549 [17]): > 100 µM
IC50 (P388): > 100 µM

C/C=C1/C(=O)/C(=C(/O)C(C)CCCCCC)C(=O)N1C (stereo unspecified) [PENICILLENOL B1]
IC50 (Bel-7402): > 100 µM
IC50 (A549 [17]): > 100 µM
IC50 (P388): > 100 µM
IC50 (HL-60): 3.2 µM

C/C=C1\C(=O)/C(=C(/O)C(C)CCCCCC)C(=O)N1C (stereo unspecified) [PENICILLENOL B2]
IC50 (Bel-7402): > 100 µM
IC50 (A549 [17]): > 100 µM
IC50 (P388): > 100 µM

C/C=C/CCCC(C)/C(O)=C1\C(=O)[C@H]([C@H](C)O)N(C)C1=O (stereo partly specified) [PENICILLENOL C1]
IC50 (Bel-7402): > 100 µM
IC50 (A549 [17]): > 100 µM
IC50 (P388): > 100 µM
IC50 (HL-60): > 100 µM

C/C=C/CCCC(C)/C(O)=C1\C(=O)[C@@H]([C@@H](C)O)N(C)C1=O (stereo partly specified) [PENICILLENOL C2]
IC50 (Bel-7402): > 100 µM
IC50 (A549 [17]): > 100 µM
IC50 (P388): > 100 µM
IC50 (HL-60): > 100 µM

CC(/C=C/C(O)=C1/C(=O)CNC1=O)=C\[C@@H](C)[C@H]1O[C@@]2(C)O[C@@H](C=C[C@@]23CO3)[C@H]1C [TIRANDALYDIGIN]
MIC (Legionella): > 32 µg/mL
MIC (Streptococcus equinus): 12.5 µg/mL (≈ 31.1 µM)
MIC (Streptococcus pyogenes): 3.1 µg/mL (≈ 7.72 µM)
MIC (Bacteroides fragilis): 0.5 µg/mL (≈ 1.25 µM)
MIC (Enterococcus [18]): > 16 µg/mL

CC1=C[C@H]2[C@H](O)CC[C@@](C)(/C(O)=C3/C(=O)CNC3=O)[C@H]2C[C@@H]1CCC(C)C(O)/C(C)=C/CC(O)/C=C/C(C)C(O)/C=C/CC(O)/C=C/CC(O)CC1CCCN1C(=N)N (stereo partly specified) [TPU-0037 A]
MIC (Staphylococcus aureus [19]): 3.13 µg/mL (≈ 3.79 µM)

C/C(=C\CC(O)CC(O)CCC(C)C(O)C(C)C(O)CCCC(O)C(C)C(O)/C(C)=C/C(C)C(=O)/C(C)=C/C(O)C(O)CC(O)CC(OC1OC(C)C(O)C(N)C1O)C(C)CCC(O)CC(O)CCC(C)C(O)C(C)C(O)C(C)C)C(=O)C1=C(O)/C(=C/C(C)C)N(C)C1=O (stereo unspecified) [VANCORESMYCIN]
MIC (Enterococcus faecalis [20]): 0.3 µg/mL (≈ 0.223 µM)
MIC (Staphylococcus aureus [4]): < 0.04 µg/mL
